Assay results reported in patent US12018024B2, “Compounds and compositions for the treatment of cryptosporidiosis” (Novartis AG, priority 2020, dated 2024).
pEC50, pIC50: −log10 of the molar value. Like-named read-outs stand apart in the source and are kept apart here.

Legend:
C. parvum PI(4)K = C. parvum PI(4)K (Cryptosporidium parvum, UniProt Q5CVD3); assay: CpPI(4)K enzymatic assay (Transcreener ADP2 FP); format: biochemical
Description: Baculovirus expression and purification of C. parvum phosphatidylinositol 4-kinase: The full-length coding sequence of C. parvum PI(4)K (cgd8_4500, 1114 amino acids) was codon-optimized for baculovirus expression, synthesized and cloned into pFastBac-HTb (Invitrogen 10584-027) in frame with the amino-terminal polyhistidine tag using the BamHI and HindIII restriction sites. Recombinant pFastBacHTb-CpPI(4)K bacmid clones were generated by site-specific transposition in E. coli DH10Bac (Invitrogen 10361-012). The bacmid sequence was confirmed by direct DNA sequencing to confirm a lack of mutations across the whole gene. The subsequent steps for bacmid isolation, transfection and selection of the recombinant viruses were performed according to the manufacturer's protocol (Bac-to-Bac system #10359, Invitrogen).
SF9 cells, cultured in […] serum-free medium, were transfected with recombinant baculovirus at 1/200 (v/v) and incubated at 27° C. for 72 h. The pellets were collected after centrifugation and re-suspended in cell lysis buffer (20 mM Tris-HCl, pH 7.5, 300 mM NaCl, 1 mM DTT, 20 mM imidazole, 0.01% Triton X-100 and 1× complete protease inhibitor cocktail without EDTA (Roche Diagnostics 04693116001)). The cell suspension was lysed by sonication and the clarified supernatant was loaded onto a 1 ml HisTrap affinity column (GE Healthcare) pre-equilibrated with buffer A (20 mM Tris-HCl, pH 7.5, 300 mM NaCl, 1 mM DTT, 20 mM Imidazole, and 1× complete protease inhibitor cocktail without EDTA). The column was washed with buffer B (buffer A containing 45 mM imidazole) and the bound protein of interest was eluted with buffer C (buffer A with 90 mM imidazole). The fractions containing CpPI(4)K were pooled, concentrated using Amicon Ultra-15 and purified by a gel-filtration column (Hi-Load 26/60 Superdex 200, GE Healthcare) equilibrated with 20 mM Tris, pH 7.5, 300 mM NaCl, 1 mM DTT and 1× protease inhibitor cocktail without EDTA. The concentrations of the purified protein (Mw 132.39 kda) was determined by using the protein molar extinction coefficient (ε280 nm=133,810 M^−1 cm^−1). Aliquots were flash frozen in liquid nitrogen and immediately stored at −80° C.
PI(4)K enzymatic Assay The CpPI(4)K enzymatic assay was performed as described earlier with a some modifications (McNamara et al., 2013). Briefly, L-α-phosphatidylinositol (Avanti Polar Lipid 840046), dissolved in 3% n-octylglucoside (Roche Diagnostics 10634425001), was used as the lipid substrate for the PI(4)K activity assay. CpPI(4)K was assayed using Transcreener ADP2 FP detection kit (BellBrook 3010) in a black, solid 384-well plate (Corning 3575). The final assay volume was 10 μl and contained 3 nM of the respective CpPI(4)K construct in 10 mM Tris, pH 7.5, 1 mM DTT, 3 μM ATP, 5 mM Mn2+, 0.05% Triton X-100 and 10 μM phosphatidylinositol/octylglucoside. The enzyme reaction was performed for 50 minutes at room temperature and was stopped by adding 10 μl of detection mix containing 1× stop buffer (50 mM HEPES, pH7.5, 400 mM NaCl, 20 mM EDTA, and 0.02% Brij-35), 2 nM AMP Alexa Fluor 633 tracer, and 20 μg ml^−1 ADP antibody. Fluorescence polarization measurements were performed on the Infinite M1000 plate reader (Tecan) with λex=635 nm and λem=680 nm (20-nm bandwidth). IC50 values were calculated using Graphpad Prism software.

Cryptosporidium parvum = assay: Cytopathic effect (CPE) based assay, C. parvum-infected HCT-8 cells; format: cell-based; settings: HCT-8, 48 h, read-out: (b) C.p.* CPE EC50 (μM)
Method: (§1) Human ileocecal colorectal adenocarcinoma cells (HCT-8 [HRT-18] ATCC, CCL-34) were maintained in T-175 flasks (Corning, 431080) in complete growth medium (RPMI-1640 medium (Gibco, 11875) supplemented with 10% heat-inactivated horse serum (Gibco, 26050), 1× MEM non-essential amino acids (Gibco, 11140), 10 mM HEPES (Gibco, 15630), 100 units/mL penicillin, and 100 units/mL streptomycin) at 37° C. and 5% CO2 in a humidified incubator. Cultures were passaged twice weekly using 10 mL of 1× Phosphate-Buffered Saline (PBS) without Ca^2+ and Mg^2+ (Gibco, 20012) for washing and 3-5 mL per T-175 flask of TrypLE Express Enzyme (Gibco, 12604) for dissociation of adherent cells.
Cryptosporidium parvum oocysts purchased from the Sterling Laboratory, University of Arizona (Iowa isolate) were purified from infected calf feces using discontinuous sucrose and cesium chloride centrifugation gradients and stored in PBS solution containing 0.01% Tween 20, 100 units/mL penicillin and 100 units/mL gentamicin.
(§2) Excystaion and infection: Excystation and infection protocols were developed following established methods with some modifications (Gut & Nelson, 1999, Upton et al., 1995, Bessoff et al., 2013). Briefly, oocysts were primed in 1 mL of 10 mM hydrochloric acid in 1× Hank's Balanced Salt Solution (HBSS) (Gibco, 14025) for 10 minutes with agitation at 1000 rpm, 37° C. on an Eppendorf thermomixer, then washed twice with 1 mL of room temperature non-acidic 1× HBSS by centrifugation at 13,000 rpm for 3 minutes at 25° C. Primed oocysts were further excysted at a concentration of 1×10^6 oocysts/μL in parasite infection medium consisting of a pre-warmed and pre-gassed 1:1 formulation of Leibovitz's L-15 medium (Gibco, 11415) and UltraCULTURE medium (Lonza, 12-725F) supplemented with 2 mM sodium taurocholate (Sigma, 86339-1), 10% heat-inactivated horse serum, and 200 μM L-ascorbic acid (Sigma, 95210) at 25° C. for 10 minutes. HCT-8 monolayer cells were infected with excysted cryptosporidium at a specified multiplicity of infection (MOI). All dilutions for subsequent assays were performed in parasite infection medium without sodium taurocholate. Pre-excysted oocysts were enumerated microscopically using a C-Chip disposable hemocytometer (NanoEnTek, DHC-N01).
Compound and assay plate preparation: Compound powders were dissolved in neat DMSO (Fisher, D4121) to 10 mM and stored at 4° C. prior to dilution into source plates. Dilutions were carried out using a Microlab STAR liquid handler (Hamilton) to obtain compound source plates containing the ten-point or eight-point three fold dilutions starting from 10 mM in duplicates. Source plates were stored at 4° C. prior to spotting into assay plates. Before administration, all compound source plates were equilibrated to room temperature. A specified volume of compounds from source plate were spotted to assay plate using an Echo Acoustic liquid handler (LABCYTE, 550) so that the final DMSO concentration was less than 0.5%. Each assay plate a specified number of DMSO-treated negative control wells and a well-studied potent active compound at 100 nM as positive control. As a quality control, all positive and negative-control wells were used to calculate a Z′-value and signal to noise ratio (S:N) for each plate.
Cryptosporidium spp are obligate-intracellular parasites that infect intestinal epithelial cells and the host cell is killed upon parasite egress. […] The loss of epithelial cells is due to both rapid parasite invasion/multiplication/egress and also pro-inflammatory immune response (Adams et al., 1994, Griffiths et al., 1994). We have observed a consistent cytopathic effect (CPE) in HCT-8 cells with C. spp infection the loss of viability of the host cells using CellTiter-Glo reagent.
Confluent HCT-8 cells in T-175 flasks were directly infected with excysted oocysts at an MOI (host to parasite) of 1:2 for C. parvum and 1:4 for C. hominis. […]

Cryptosporidium hominis = assay: Cytopathic effect (CPE) based assay, C. hominis-infected HCT-8 cells; format: cell-based; settings: for pEC50: HCT-8 host cells, 48 hours treatment, CellTiter-Glo, read-out: (c) C.h.* CPE EC50
Method: as §1
Cryptosporidium hominis oocysts were purchased from the Tufts University Cummings School of Veterinary Medicine (courtesy of Dr. Saul Tzipori). C. hominis oocysts were purified from infected gnotobiotic piglet feces and stored in PBS solution containing 0.01% Tween-20, 100 units/mL penicillin and 100 units/mL gentamicin. C. parvum and C. hominis oocysts less than three months old from the date of shedding were used in infection experiments.
as §2
Compound and assay plate preparation: Compound powders were dissolved in neat DMSO (Fisher, D4121) to 10 mM and stored at 4° C. prior to dilution into source plates. Dilutions were carried out using a Microlab STAR liquid handler (Hamilton) to obtain compound source plates containing the ten-point or eight-point three fold dilutions starting from 10 mM in duplicates. […]

H.s. PI(4)K = H.s. PI(4)K (Homo sapiens, UniProt Q9UBF8); assay: H.s. PI(4)K IC50; format: biochemical; settings: read-out: (d) H.s.* PI(4)K IC50
H.s. PI(4)K, sequence (Q9UBF8 2-816 limits assumed): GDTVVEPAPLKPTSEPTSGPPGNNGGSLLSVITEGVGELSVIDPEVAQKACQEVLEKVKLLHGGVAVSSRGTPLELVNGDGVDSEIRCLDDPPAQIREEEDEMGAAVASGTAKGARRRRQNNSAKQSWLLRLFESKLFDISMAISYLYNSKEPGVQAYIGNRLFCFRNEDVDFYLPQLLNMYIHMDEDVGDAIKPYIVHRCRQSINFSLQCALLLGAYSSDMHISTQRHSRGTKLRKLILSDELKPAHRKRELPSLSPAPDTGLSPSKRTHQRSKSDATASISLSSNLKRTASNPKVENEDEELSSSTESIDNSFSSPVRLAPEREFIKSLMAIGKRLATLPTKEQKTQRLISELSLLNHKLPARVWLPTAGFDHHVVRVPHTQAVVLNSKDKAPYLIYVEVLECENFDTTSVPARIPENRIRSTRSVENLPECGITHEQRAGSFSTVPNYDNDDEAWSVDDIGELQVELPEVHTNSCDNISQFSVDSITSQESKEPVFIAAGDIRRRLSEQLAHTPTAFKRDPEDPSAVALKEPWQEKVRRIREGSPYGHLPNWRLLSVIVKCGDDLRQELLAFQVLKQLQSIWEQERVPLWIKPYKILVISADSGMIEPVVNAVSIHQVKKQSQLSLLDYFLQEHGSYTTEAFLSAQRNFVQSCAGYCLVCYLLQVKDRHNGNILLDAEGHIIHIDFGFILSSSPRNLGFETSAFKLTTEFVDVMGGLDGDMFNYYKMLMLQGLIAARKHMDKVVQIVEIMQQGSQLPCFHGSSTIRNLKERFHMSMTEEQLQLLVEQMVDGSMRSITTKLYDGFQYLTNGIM

C. parvum PI(4)K, sequence (Q5CVD3 entry or part of it): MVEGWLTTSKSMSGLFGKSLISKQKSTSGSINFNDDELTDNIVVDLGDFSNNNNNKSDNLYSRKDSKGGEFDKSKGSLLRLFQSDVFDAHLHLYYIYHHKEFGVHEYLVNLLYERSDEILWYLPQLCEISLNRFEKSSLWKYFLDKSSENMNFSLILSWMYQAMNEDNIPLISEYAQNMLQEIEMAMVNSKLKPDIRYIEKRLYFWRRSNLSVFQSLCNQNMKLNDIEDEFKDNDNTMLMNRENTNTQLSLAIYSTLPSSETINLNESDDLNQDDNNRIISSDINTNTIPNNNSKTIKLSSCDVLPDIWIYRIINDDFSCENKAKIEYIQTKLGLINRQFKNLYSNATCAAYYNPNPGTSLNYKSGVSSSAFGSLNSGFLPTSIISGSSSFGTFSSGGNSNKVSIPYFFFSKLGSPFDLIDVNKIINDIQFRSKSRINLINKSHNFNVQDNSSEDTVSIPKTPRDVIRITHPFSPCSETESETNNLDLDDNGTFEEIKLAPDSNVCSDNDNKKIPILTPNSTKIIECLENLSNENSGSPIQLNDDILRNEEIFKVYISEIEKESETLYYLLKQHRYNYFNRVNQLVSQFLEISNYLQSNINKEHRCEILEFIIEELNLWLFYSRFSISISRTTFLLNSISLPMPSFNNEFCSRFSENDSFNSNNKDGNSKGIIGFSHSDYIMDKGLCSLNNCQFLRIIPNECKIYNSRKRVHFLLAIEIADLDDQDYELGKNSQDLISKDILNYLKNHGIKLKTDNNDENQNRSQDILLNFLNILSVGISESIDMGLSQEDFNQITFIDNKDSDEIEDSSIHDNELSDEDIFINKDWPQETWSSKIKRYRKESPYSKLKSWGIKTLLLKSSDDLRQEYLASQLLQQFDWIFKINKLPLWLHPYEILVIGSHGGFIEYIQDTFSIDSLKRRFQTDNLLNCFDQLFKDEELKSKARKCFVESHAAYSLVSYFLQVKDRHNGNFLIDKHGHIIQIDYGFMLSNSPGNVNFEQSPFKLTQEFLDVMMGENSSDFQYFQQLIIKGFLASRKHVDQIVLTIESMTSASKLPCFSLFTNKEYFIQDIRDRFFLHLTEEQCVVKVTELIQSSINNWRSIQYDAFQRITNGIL

Row | SMILES | pIC50 (C. parvum PI(4)K) | EC50 (Cryptosporidium parvum) | EC50 (Cryptosporidium hominis; HCT-8, 48 h, read-out: (c) C.h.* CPE EC50 (μM)) | pIC50 (H.s. PI(4)K) | pEC50 (Cryptosporidium hominis)
1 | CNC(=O)c1ccc(-c2cnn3ccc(C(=O)N(C)c4ccc(Cl)c(C(=O)OC)c4)cc23)cc1 [Example 1.16, Methyl 2-chloro-5-(N-methyl-3-(4-(methylcarbamoyl)phenyl)pyrazolo[1,5-a]pyridine-5-carboxamido)benzoate] | > 7.00 | < 0.1 µM | < 0.1 µM | 6.00 to 7.00 | –
2 | CNC(=O)c1ccc(-c2cnn3cnc(C(=O)N(C)c4ccc(Cl)c(C(=O)OC)c4)cc23)cc1 [Example 3.1, Methyl 2-chloro-5-(N-methyl-3-(4-(methylcarbamoyl)phenyl)pyrazolo[1,5-c]pyrimidine-5-carboxamido)benzoate] | > 7.00 | 0.1 to 1 µM | – | < 6.00 | 6.00 to 7.00
3 | COC(=O)c1cc(Cl)ccc1N(C)C(=O)c1ccn2ncc(-c3ccc(C(N)=O)cc3)c2c1 [Example 4.1, Methyl 2-(3-(4-carbamoylphenyl)-N-methylpyrazolo[1,5-a]pyridine-5-carboxamido)-5-chlorobenzoate] | > 7.00 | < 0.1 µM | – | 6.00 to 7.00 | > 7.00
